Source: patent US20260365655A1, “NEW USE OF JANUS KINASE (JAK)-DEGRADING AGENT BASED ON PROTEOLYSIS TARGETING CHIMERA (PROTAC)” (SHANGHAI SKIN DISEASE HOSPITAL, priority 2022, published 2026)

Assay: HaCaT cell viability by CCK-8 assay
Format: cell-based
Details: human, hacat cells
Procedure: (1) Reagents: compound 1: a compound shown by Compound 1 in Formula (I); compound 2: a compound shown by Compound 2 in Formula (I); Dulbecco's Modified Eagle Medium (DMEM) high-glucose medium: Wuhan Pricella Biotechnology Co., Ltd.; South American fetal bovine serum (FBS) and trypsin: Gibco, USA; penicillin-streptomycin: Hyclone, USA; and CCK-8 kit: Beyotime.
(2) Instruments: CO2 incubator: HERA cell 240; and microplate reader: Thermo Fisher Scientific, USA.
The cultured HaCaT cells were counted under a microscope to be about 2×10^6 cells/mL, then inoculated in a 96-well plate at about 6×10^3 cells/well, and incubated overnight in a 37 °C and 5% CO2 incubator. After cells were adherent, a medium was removed, and 200 μL of each of complete media including compounds 1 and 2 at different concentrations (0.05 μg/mL, 0.1 μg/mL, 0.2 μg/mL, 0.5 μg/mL, 1 μg/mL, 2 μg/mL, 5 μg/mL, 10 μg/mL, and 20 μg/mL) was added to a corresponding well. The 0 μg/mL group was set as a blank control group. Three replicate wells were set for each treatment of the compounds 1 and 2. The plate was incubated in a CO2 incubator for 24 h. 20 μL of CCK-8 reagent was added to each well, and the plate was incubated in a CO2 incubator for 1 h and then placed in the microplate reader to read the absorbance at 450 nm. The test was repeated 3 times, and a mean value was taken. The measured absorbance was substituted into a cell viability calculation formula to calculate the cell viability.
The data of the present disclosure was processed with the Excel and Graphpad software. The experimental data was tested by one-way ANOVA. The post-hoc multiple comparison was conducted with the LSD. P<0.05 indicated a significant difference.

SMILES: N#CC[C@H](C1CCCC1)n1cc(-c2nc(Nc3ccc(C(=O)NCCCCNc4cccc5c4C(=O)N(C4CCC(=O)NC4=O)C5=O)cc3)nc3[nH]ccc23)cn1 (stereo partly drawn) [Compound 1]
- viability at 24 h (0.05 μg/mL): 80.5%
- viability at 24 h (0.10 μg/mL): 85.7%
- viability at 24 h (0.20 μg/mL): 90.7%
- viability at 24 h (0.50 μg/mL): 98.3%
- viability at 24 h (1.00 μg/mL): 98.3%
- viability at 24 h (2.00 μg/mL): 93.8%
- viability at 24 h (5.00 μg/mL): 108%
- viability at 24 h (10.00 μg/mL): 110%
- viability at 24 h (20.00 μg/mL): 80.3%

SMILES: CCS(=O)(=O)N1CC(CC#N)(n2cc(-c3nc(Nc4ccc(C(=O)NCCCCNc5cccc6c5C(=O)N(C5CCC(=O)NC5=O)C6=O)cc4)nc4[nH]ccc34)cn2)C1 (stereo not drawn) [Compound 2]
- viability at 24 h (0.05 μg/mL): 95.5%
- viability at 24 h (0.10 μg/mL): 95.6%
- viability at 24 h (0.20 μg/mL): 106%
- viability at 24 h (0.50 μg/mL): 113%
- viability at 24 h (1.00 μg/mL): 101%
- viability at 24 h (2.00 μg/mL): 107%
- viability at 24 h (5.00 μg/mL): 124%
- viability at 24 h (10.00 μg/mL): 120%
- viability at 24 h (20.00 μg/mL): 93.3%
